Experimental data taken from patent publication US6057314A, “Low molecular weight bicyclic thrombin inhibitors” (Biochem Pharma Inc., priority 1997, dated 2000).
“And” between values parts separate entries of the source, which are not always exact repeats. Equal entries are not always repeated. Where two headings read alike, the source gives them in different places.

What was measured:
[1] = system: carotid artery in rats; assay: FeCl3 induced carotid arterial injury model (arterial thrombosis) in rats, time to occlusion; format: in vivo, rat (Sprague-Dawley); conditions: Table 2
Protocol: Arterial Thrombosis Model
FeCl3 Induced Carotid Arterial Injury Model
Animals were laid on a 37° C. heating pad. The carotid artery was exposed through a midline cervical incision. Careful blunt dissection was used to isolate the vessel from the carotid sheath. […] A temperature probe (Physitemp*MT23/3) was placed between one of the pieces of tubing and the artery. Injury was induced by topical application on the carotid artery above the temperature probe of a small disc (3 mm dia.) of Whatman* No. 1 filter paper previously dipped in a 35% solution of FeCl3 […]. The vessel temperature was monitored for 60 minutes after application of FeCl3 as an indication of blood flow.
The time between the FeCl3 application and the time at which the vessel temperature decreased abruptly (>2.4° C.) was recorded as the time to occlusion of the vessel. Inhibitor compounds were given as an iv bolus (mg/kg) followed immediately by an iv infusion (μg/kg/min. via femoral vein). The dose of inhibitor needed to double the time to occlusion in comparison to control animals in which injury was induced in the absence of inhibitor was determined.

[2] = target: T1, human thrombin (Homo sapiens, UniProt P00734); assay: Inhibition of amidolytic activity of human thrombin (Ki, fluorogenic substrate Tos-Gly-Pro-Arg-AMC); format: biochemical
Protocol: In an assay to determine the inhibitory dissociation constant, Ki, for a given compound, a chromogenic or fluorogenic substrate of thrombin would be added to a solution containing a test compound and thrombin; the resulting catalytic activity of the enzyme would be spectrophotometrically determined. This type of assay is well known to those skilled in the art.
Determination of K1 Values for Heterocyclics
The steady-state velocity was then measured for a few minutes. The compounds of this invention were also pre-incubated with thrombin for 20 minutes at room temperature before adding the substrate.

[3] = target: T1, human thrombin; assay: dTT assay (fibrin clotting assay, human thrombin and bovine fibrinogen); format: biochemical; conditions: Table 1; concentration required to double the clotting time; read-out: dTT IC50
From the text: The clotting time was plotted against the inhibitor concentrations and the IC50 was estimated as the inhibitor concentration required to double the clotting time relative to the control.

[4] = ivb + inf 0.75-50 (iv bolus mg/kg, infusion μg/kg/min)
[5] = Table 1, read-out: Ki (inhibitory dissociation constant for human thrombin)

Structure (SMILES)	M.O.T (min)+/-sem [1, 4]	Ki ([2]; Table 2, read-out: Ki)	also measured
N=C(N)NCCCC(NC(=O)[C@@H]1CS[C@@H]2CC[C@@H](CCCC3CCCCC3)C(=O)N21)C(=O)c1nccs1 (single isomer, unassigned) [Compound 0265a]	21.5 ± 10 min	4 nM	–
N=C(N)NCCCC(NC(=O)[C@@H]1CS[C@@H]2CC[C@@H](CCCC3CCCCC3)C(=O)N21)C(=O)c1nccs1 (single isomer, unassigned) [Compound 0265b]	14.83 ± 2.3 min	18 nM	–
N=C(N)NCCCC(NC(=O)C1CSC2CCC(N3C(=O)c4ccccc4C3=O)C(=O)N21)C(=O)c1nccs1 (single isomer, unassigned) [Compound 0295a]	20 ± 1 min	1500 nM	–
N=C(N)NCCCC(NC(=O)C1CSC2CCC(N3C(=O)c4ccccc4C3=O)C(=O)N21)C(=O)c1nccs1 (single isomer, unassigned) [Compound 0295b]	19 ± 2.7 min	–	–
N=C(N)NCCCC(NC(=O)[C@@H]1CSC2CC[C@H](NC(=O)CCc3ccccc3)C(=O)N21)C(=O)c1nccs1 (single isomer, unassigned) [Compound 0305a]	–	220 nM	–
N=C(N)NCCCC(NC(=O)[C@@H]1CSC2CC[C@H](NC(=O)CCc3ccccc3)C(=O)N21)C(=O)c1nccs1 (single isomer, unassigned) [Compound 0305b]	–	12000 nM	–
N=C(N)NCCCC(NC(=O)[C@@H]1CSC[C@H]2CC[C@@H](Cc3ccccc3)C(=O)N21)C(=O)c1nccs1 (single isomer, unassigned) [Compound 0925a]	20.3 ± 3.5 min	7 nM	–
N=C(N)NCCCC(NC(=O)[C@@H]1CSC[C@H]2CC[C@@H](Cc3ccccc3)C(=O)N21)C(=O)c1nccs1 (single isomer, unassigned) [Compound 0925b]	–	30 nM	–
N=C(N)NCCCC(NC(=O)[C@@H]1CSC[C@H]2CC[C@@H](CCc3ccccc3)C(=O)N21)C(=O)c1nccs1 (single isomer, unassigned) [Compound 0940a]	15.2 ± 0.82 min	16 nM	–
N=C(N)NCCCC(NC(=O)[C@@H]1CSC[C@H]2CC[C@@H](CCc3ccccc3)C(=O)N21)C(=O)c1nccs1 (single isomer, unassigned) [Compound 0940b]	–	160 nM	–
N=C(N)NCCCC(NC(=O)[C@@H]1CS(=O)(=O)C[C@H]2CC[C@@H](Cc3ccccc3)C(=O)N21)C(=O)c1nccs1 (single isomer, unassigned) [Compound 0950a]	–	150 nM	–
N=C(N)NCCCC(NC(=O)[C@@H]1CS(=O)(=O)C[C@H]2CC[C@@H](Cc3ccccc3)C(=O)N21)C(=O)c1nccs1 (single isomer, unassigned) [Compound 0950b]	–	1000 nM	–
N=C(N)NCCCC(NC(=O)C1CSC2CCC(NC(=O)CCc3ccccc3)C(=O)N21)C(=O)c1nccs1 (stereo not drawn) [0315a + b]	–	45 nM	–
N=C(N)NCCCC(NC(=O)[C@@H]1CSCC2CC[C@@H](Cc3ccccc3)C(=O)N21)C(=O)c1nccs1 (stereo partly drawn) [0925a + b]	19.6 ± 0.2 min	10 nM	–
N=C(N)NCCCC(NC(=O)[C@@H]1CSC2CC[C@@H](CC3CCCCC3)C(=O)N21)C(=O)CCC(=O)N[C@@H](Cc1ccccc1)C(=O)N[C@@H](CCCNC(=N)N)C(N)=O (stereo partly drawn) [Compound 0090, 6S-cyclohexylmethylhexahydro-5-oxo-5H-thiazolo[3,2-a]pyridine-3R-carboxamido((propylketo)Arg--Phe--Arg--NH2)]	–	–	IC50 [3]: 330 nM; Ki [2, 5]: 31 nM
N=C(N)NCCCC(NC(=O)[C@@H]1CSC2CC[C@@H](Cc3ccccc3)C(=O)N21)C(=O)CCC(=O)O (stereo partly drawn) [Compound 0095, 6S-benzylhexahydro-5-oxo-5H-thiazolo[3,2-a]pyridine-3R-carboxamido((propanoic acid)ketoarginine)]	–	–	Ki [2, 5]: 26000 nM
COC(=O)CCC(=O)C(CCCNC(=N)N)NC(=O)[C@@H]1CSC2CC[C@@H](Cc3ccccc3)C(=O)N21 (stereo partly drawn) [Compound 0100, 6S-benzylhexahydro-5-oxo-5H-thiazolo[3,2-a]pyridine-3R-carboxamido(propylcarbmethoxyketoarginine)]	–	–	IC50 [3]: 165000 nM; Ki [2, 5]: 19000 nM
N=C(N)NCCCC(NC(=O)[C@@H]1CS[C@H]2CC[C@@H](Cc3ccccc3)C(=O)N21)C(=O)c1nc2ccccc2s1 (stereo partly drawn) [Compound 0210, 6-Benzyl-5-oxo-hexahydro-thiazolo[3,2-a]pyridine-3-carboxylic acid[1-(benzothiazole-2-carbonyl)-4-guanidino-butyl]-amide]	20.13 ± 3.4 min	8 nM	–
CC12CCC(CCc3ccccc3)C(=O)N1C(C(=O)NC(CCCNC(=N)N)C(=O)c1nc3ccccc3s1)CS2 (stereo not drawn) [Compound 0225, 8a-Methyl-5-oxo-6-phenethyl-hexahydro-thiazolo[3,2-a]pyridine-3-carboxylic acid[1-(benzothiazole-2-carbonyl)-4-guanidino-butyl]-amide]	23 ± 7 min	–	–
C[C@]12CC[C@@H](Cc3ccc4nc(C(F)(F)F)ccc4c3)C(=O)N1[C@H](C(=O)NC(CCCNC(=N)N)C(=O)c1nc3ccccc3s1)CS2 (stereo partly drawn) [Compound 0240, 8a-Methyl-5-oxo-6-(2-trifluoromethyl-quinolin-6-ylmethyl)-hexahydro-thiazolo[3,2-a]pyridine-3-carboxylic acid[1-(benzothiazole-2-carbonyl)-4-guanidino-butyl]-amide]	17 ± 2.6 min	18 nM	–
N=C(N)NCCCC(NC(=O)[C@@H]1CS[C@@H]2CC[C@@H](Cc3ccccc3)C(=O)N21)C(=O)c1nccs1 (stereo partly drawn) [Compound 0245, 6-Benzyl-5-oxo-hexahydro-thiazolo[3,2-a]pyridine-3-carboxylic acid[4-guanidino-1-(thiazole-2-carbonyl)butyl]-amide]	22.6 ± 2.6 min	5 nM and 8 nM	M.O.T (min)+/-sem ([1]; ivb + inf 0.5-30 (iv bolus mg/kg, infusion μg/kg/min)): 27 ± 3 min
Cn1ccnc1C(=O)C(CCCNC(=N)N)NC(=O)[C@@H]1CS[C@@H]2CC[C@@H](Cc3ccccc3)C(=O)N21 (stereo partly drawn) [Compound 0255, 6-Benzyl-5-oxo-hexahydro-thiazolo[3,2-a]pyridine-3-carboxylic acid[4-guanidino-1-(1-methyl-1H imidazole-2-carbonyl)butyl]-amide]	–	500 nM	–
CC12CCC(Cc3ccccc3)C(=O)N1C(C(=O)NC(CCCNC(=N)N)C(=O)c1nccs1)CS2 (stereo not drawn) [Compound 0260, 6-Benzyl-8a-methyl-5-oxo-hexahydro-thiazolo[3,2-a]pyridine-3-carboxylic acid[4-guanidino-1-(thiazole-2-carbonyl)-butyl]-amide]	14.83 ± 0.2 min	–	–
CC12CCC(Cc3ccc4nc(C(F)(F)F)ccc4c3)C(=O)N1C(C(=O)NC(CCCNC(=N)N)C(=O)c1nccs1)CS2 (stereo not drawn) [Compound 0285, 8a-Methyl-5-oxo-6-(2-trifluoromethyl-quinolin-6-ylmethyl)-hexahydro-thiazolo[3,2-a]pyridine-3-carboxylic acid[4-guanidino-1-(thiazole-2-carbonyl)-butyl]-amide]	11.33 ± 1.34 min	–	–
N=C(N)NCCCC(NC(=O)C1CSC2CCC(NC(=O)CCc3ccccc3)C(=O)N21)C(=O)c1nccs1 (stereo not drawn) [Compound 0315b]	30.33 ± 8.4 min	10 nM	–
N=C(N)NCCCC(NC(=O)[C@@H]1CC[C@H]2CN(C(=O)CCc3ccccc3)CC(=O)N21)C(=O)c1nccs1 (stereo partly drawn) [Compound 0340, 4-Oxo-2-(3-phenyl-propionyl)-octahydro-pyrrolo[1,2-a]-pyrazine-6-carboxylic acid [4-guanidino-1-(thiazole-2-carbonyl)-butyl]-amide]	–	0.6 nM	M.O.T (min)+/-sem ([1]; ivb + inf 0.25-20 (iv bolus mg/kg, infusion μg/kg/min)): 36+/-9,6 min
Cc1cnc(C(=O)C(CCCNC(=N)N)NC(=O)[C@@H]2CC[C@H]3CN(C(=O)CCc4ccccc4)CC(=O)N32)s1 (stereo partly drawn) [Compound 0345, 4-Oxo-2-(3-phenyl-propionyl)-octahydro-pyrrolo[1,2-a]pyrazine-6-carboxylic acid[4-guanidino-1-(5-methyl-thiazole-2-carbonyl)-butyl]-amide]	50 ± 5.86 min	2 nM	–
N=C(N)NCCCC(NC(=O)[C@@H]1CSCC2CCCC(=O)N21)C(=O)c1nccs1 (stereo partly drawn) [Compound 0915, 6-Oxo-octahydro-pyrido[2,1-c][1,4]thiazine-4-carboxylic acid[4-guanidino-1-(thiazole-2-carbonyl)-butyl]-amide]	15+/-1,3 min	1600 nM	–
N=C(N)NCCCC(NC(=O)[C@@H]1CSCC2CC[C@H](Cc3ccccc3)C(=O)N21)C(=O)c1nccs1 (stereo partly drawn) [Compound 0935, 7-Benzyl-6-oxo-octahydro-pyrido[2,1-c][1,4]thiazine-4-carboxylic acid[4-guanidino-1-(thiazole-2-carbonyl)butyl]-amide]	–	120 nM	–
